We go through nine compounds from patent US9539342B2, “Auristatin tyramine phosphate salts and auristatin aminoquinoline derivatives and prodrugs thereof” (ARIZONA BOARD OF REGENTS, A BODY CORPORATE OF THE STATE OF …, priority 2011, dated 2017).

For orientation: Solubility means the concentration that dissolves in the medium under given conditions. Broadly, the GI50 is the concentration that inhibits growth by half.

In brackets after ≈: the same amount, converted by molar mass. Read-outs that look alike come from different tables or passages of the source.

Data set [1] in a line: Solubility in distilled water. Here is the method: The remaining salts (3e-h) were prepared directly from the free acid 10b by treatment with the appropriate base or amino acid. The solubilities of each salt and of precursor 9 were measured in distilled water at room temperature.
For data set [2], the system named is murine P388 lymphocytic leukemia cell line. The data set is described as follows: Murine P388 lymphocytic leukemia cell line growth inhibition. It counts as cell-based. Particulars: for Activity against P388 (in words): murine P388 lymphocytic leukemia cell line.
The test system of the next data set is breast (MCF-7). The data set is described as follows: Human cancer cell line minipanel: MCF-7. It counts as cell-based. Particulars: for GI50: read-out: GI50 MCF-7 (nanomolar value in parentheses).
The subject of another data set is pancreas (BXPC-3). The data set is described as follows: Human cancer cell line minipanel: BXPC-3. The format is cell-based. Particulars: for GI50: read-out: GI50 BXPC-3 (nanomolar value in parentheses).
The subject of the next data set is prostate (DU-145). The data set is described as follows: Human cancer cell line minipanel: DU-145. It counts as cell-based. Particulars: for GI50: read-out: GI50 DU-145 (nanomolar value in parentheses).
Data set [3] deals with minipanel of human cancer cell lines. Kind of data set: Minipanel of human cancer cell lines (summary). Particulars: for GI50 (order of magnitude over the cell lines): summary of cancer cell growth inhibition. The format is cell-based.
Another data set has as its system CNS (SF-268). The data set is described as follows: Human cancer cell line minipanel: SF-268. It counts as cell-based. Particulars: for GI50: read-out: GI50 SF-268 (nanomolar value in parentheses).
For a further data set, the system named is colon (KM20L2). Kind of data set: Human cancer cell line minipanel: KM20L2. It counts as cell-based. Conditions: for GI50: read-out: GI50 KM20L2 (nanomolar value in parentheses).
The next data set deals with lung (NCI-H460). Kind of data set: Human cancer cell line minipanel: NCI-H460. The format is cell-based. Conditions: for GI50: read-out: GI50 NCI-H460 (nanomolar value in parentheses).
A short description of data set [4]: Storage stability of the free phosphoric acid. It counts as physicochemical. Particulars: storable for short periods as methanolic solution (<0.01 M at 4° C.). An excerpt:
The most soluble were the sodium (3b) and potassium (3c) salts (Table 2).

Where [5] appears, read: murine lymphocytic leukemia (P388).
Where [6] appears, read: murine lymphocytic leukemia (P388), read-out: ED50 P388 (nanomolar value in parentheses).

Turning to `CC[C@H](C)[C@@H]([C@@H](CC(=O)N1CCC[C@H]1[C@H](OC)[C@@H](C)C(=O)NCCc1ccc(OP(=O)([O-])[O-])cc1)OC)N(C)C(=O)[C@@H](NC(=O)[C@H](C(C)C)N(C)C)C(C)C.[Li+].[Li+]` [Compound 3a, Lithium Auristatin TP], the Solubility in data set [1] (in distilled water at 23° C.) is given as more than 65 mg/mL.
In data set [1] (in distilled water at 23° C.), `CC[C@H](C)[C@@H]([C@@H](CC(=O)N1CCC[C@H]1[C@H](OC)[C@@H](C)C(=O)NCCc1ccc(OP(=O)([O-])[O-])cc1)OC)N(C)C(=O)[C@@H](NC(=O)[C@H](C(C)C)N(C)C)C(C)C.[K+].[K+]` [Compound 3c, Potassium Auristatin TP] registered a Solubility of more than 120 mg/mL. Besides, the “Activity against P388 (in words)” value in [2] is “exceptional activity”. In data set [2] (setting [5]), the “ED50 P388” value came to 7.6 ng/mL. Besides, in data set [2] (setting [6]), the EC50 was 8.7 nM.
Take `C1COCCN1.CC[C@H](C)[C@@H]([C@@H](CC(=O)N1CCC[C@H]1[C@H](OC)[C@@H](C)C(=O)NCCc1ccc(OP(=O)(O)O)cc1)OC)N(C)C(=O)[C@@H](NC(=O)[C@H](C(C)C)N(C)C)C(C)C` [Compound 3d, Morpholine Auristatin TP]: the Solubility in [1] (in distilled water at 23° C.) was more than 72 mg/mL.
On the same count and under the same terms, the result for `CC[C@H](C)[C@@H]([C@@H](CC(=O)N1CCC[C@H]1[C@H](OC)[C@@H](C)C(=O)NCCc1ccc(OP(=O)(O)O)cc1)OC)N(C)C(=O)[C@@H](NC(=O)[C@H](C(C)C)N(C)C)C(C)C.NC(CO)(CO)CO` [Compound 3f, TRIS Auristatin TP] reads more than 51 mg/mL.
For `CC[C@H](C)[C@@H]([C@@H](CC(=O)N1CCC[C@H]1[C@H](OC)[C@@H](C)C(=O)Nc1ccc2ncccc2c1)OC)N(C)C(=O)[C@@H](NC(=O)[C@H](C(C)C)N(C)C)C(C)C` [Compound 5, Dov-Val-Dil-Dap-6-aminoquinoline], in the data set on breast (MCF-7), the “GI50 MCF-7” value came to 0.14 ng/mL (≈ 0.000193 µM) and the GI50 was determined as 0.19 nM. In the data set with pancreas (BXPC-3), the “GI50 BXPC-3” value amounted to 0.31 ng/mL (≈ 0.000428 µM) and the GI50 was determined as 0.43 nM. In the data set on prostate (DU-145), the “GI50 DU-145” value worked out at 0.3 ng/mL (≈ 0.000414 µM) and the GI50 was determined as 0.41 nM. The “Activity against P388 (in words)” value in data set [2] is on record as “exceptional activity”. Moreover, the “ED50 P388” value in data set [2] (setting [5]) worked out at 2.6 ng/mL (≈ 0.00359 µM). Moreover, the EC50 in [2] (setting [6]) stood at 3.59 nM. For the same compound, in data set [3], the “Activity against minipanel of human cancer cell lines (in words)” value (shortened to “Activity against minipanel”) is reported as “similarly strong activity” and the “GI50 (order of magnitude over the cell lines)” value was 10^−4 μg/mL. Moreover, in the data set on CNS (SF-268), the “GI50 SF-268” value stood at 0.16 ng/mL (≈ 0.000221 µM) and the GI50 was found to be 0.22 nM. Moreover, in the data set with colon (KM20L2), the “GI50 KM20L2” value was determined as 0.25 ng/mL (≈ 0.000345 µM) and the GI50 turned out to be 0.35 nM. Also, in the data set on lung (NCI-H460), the “GI50 NCI-H460” value was found to be 0.36 ng/mL (≈ 0.000497 µM) and the GI50 stood at 0.5 nM.
Take `CC[C@H](C)[C@@H]([C@@H](CC(=O)N1CCC[C@H]1[C@H](OC)[C@@H](C)C(=O)NCCc1ccc(O)cc1)OC)N(C)C(=O)[C@@H](NC(=O)[C@H](C(C)C)N(C)C)C(C)C` [Compound 9, Dov-Val-Dil-Dap-4-hydroxyphenethylamide]: the Solubility in [1] is less than 1 mg/mL. Also, the EC50 in data set [2] (Mus musculus, P388, read-out: ED50 P388 (nanomolar value in parentheses)) came to 5 nM. The “Activity against P388 (in words)” value in data set [2] is recorded as “exceptional activity”. Besides, in [2] (setting [5]), the “ED50 P388” value was found to be 3.6 ng/mL (≈ 0.00501 µM).
For the compound `CCC(C)C(C(CC(=O)N1CCCC1C(OC)C(C)C(=O)NCCc1ccc(OP(=O)(O)O)cc1)OC)N(C)C(=O)C(NC(=O)C(C(C)C)N(C)C)C(C)C` (stereo not drawn) [Compound 10b, Dov-Val-Dil-Dap-4-(dihydrophosphoryloxy)phenethylamide], in [4], the “Stability of the pure substance (in words)” value is given as “quite unstable”.
As to “Dov-Val-Dil-Dap-2-aminoquinoline [Compound 4]”, in the data set on breast (MCF-7), the “GI50 MCF-7” value turned out to be 4.6 ng/mL and the GI50 turned out to be 6.35 nM. For the same compound, in the data set on pancreas (BXPC-3), the “GI50 BXPC-3” value was determined as 29 ng/mL and the GI50 stood at 40.1 nM. In addition, in the data set with prostate (DU-145), the “GI50 DU-145” value was 23 ng/mL and the GI50 stood at 31.8 nM. Further, the “Activity against P388 (in words)” value in data set [2] is “exceptional activity”. The “ED50 P388” value in data set [2] (setting [5]) was found to be 31 ng/mL. Also, the EC50 in data set [2] (setting [6]) stood at 42.8 nM. For the same compound, in data set [3], the “Activity against minipanel” value is given as “similarly strong activity” and the “GI50 (order of magnitude over the cell lines)” value is on record as 10^−2-10^−3 μg/mL. In the data set with CNS (SF-268), the “GI50 SF-268” value was determined as 29 ng/mL and the GI50 is 40.1 nM. In the data set with colon (KM20L2), the “GI50 KM20L2” value was determined as 7.7 ng/mL and the GI50 was determined as 10.6 nM. In addition, in the data set with lung (NCI-H460), the “GI50 NCI-H460” value worked out at 16 ng/mL and the GI50 was determined as 22.1 nM.
As for Sodium Auristatin TP [Compound 3b], in the data set with breast (MCF-7), the “GI50 MCF-7” value turned out to be 0.68 ng/mL and the GI50 came out at 0.81 nM. Further, in the data set on pancreas (BXPC-3), the “GI50 BXPC-3” value was 46 ng/mL and the GI50 is 54.6 nM. Moreover, the Solubility in data set [1] (in distilled water at 23° C.) was more than 236 mg/mL. Besides, in the data set with prostate (DU-145), the “GI50 DU-145” value turned out to be 0.54 ng/mL and the GI50 worked out at 0.64 nM. For the same compound, in [2], the “Activity against P388 (in words)” value is “exceptional activity”. In addition, in data set [2] (setting [5]), the “ED50 P388” value is less than 1 ng/mL. The EC50 in data set [2] (setting [6]) is less than 1.2 nM. In addition, in data set [3], the “Activity against minipanel” value is “similarly strong activity” and the “GI50 (order of magnitude over the cell lines)” value is 10^−2-10^−4 μg/mL. Moreover, in the data set on CNS (SF-268), the “GI50 SF-268” value turned out to be 1.25 ng/mL and the GI50 worked out at 1.48 nM. In the data set with colon (KM20L2), the “GI50 KM20L2” value was found to be 0.61 ng/mL and the GI50 came out at 0.72 nM. For the same compound, in the data set with lung (NCI-H460), the “GI50 NCI-H460” value was found to be 0.88 ng/mL and the GI50 turned out to be 1.05 nM.
